# Calls of active or inactive are those of the source.
# Experiments:
# [1] = blockers of SFLLRN-triggered platelet ATP secretion – cell-based, human platelets, luminescence, dry powder, dose response (AID 493100); assay type: functional
# [2] = biological target: T1, Eukaryotic translation initiation factor 2-alpha kinase 3 (Homo sapiens, UniProt Q9NZJ5); assay: Counterscreen assay for PERK inhibitors: Dose response cell-based high throughput screening assay to measure inhibition of PERK at 6 hours. [Related pubchem assays: 1522, 1416 ]; assay type: functional
# T1 sequence (Q9NZJ5 whole entry): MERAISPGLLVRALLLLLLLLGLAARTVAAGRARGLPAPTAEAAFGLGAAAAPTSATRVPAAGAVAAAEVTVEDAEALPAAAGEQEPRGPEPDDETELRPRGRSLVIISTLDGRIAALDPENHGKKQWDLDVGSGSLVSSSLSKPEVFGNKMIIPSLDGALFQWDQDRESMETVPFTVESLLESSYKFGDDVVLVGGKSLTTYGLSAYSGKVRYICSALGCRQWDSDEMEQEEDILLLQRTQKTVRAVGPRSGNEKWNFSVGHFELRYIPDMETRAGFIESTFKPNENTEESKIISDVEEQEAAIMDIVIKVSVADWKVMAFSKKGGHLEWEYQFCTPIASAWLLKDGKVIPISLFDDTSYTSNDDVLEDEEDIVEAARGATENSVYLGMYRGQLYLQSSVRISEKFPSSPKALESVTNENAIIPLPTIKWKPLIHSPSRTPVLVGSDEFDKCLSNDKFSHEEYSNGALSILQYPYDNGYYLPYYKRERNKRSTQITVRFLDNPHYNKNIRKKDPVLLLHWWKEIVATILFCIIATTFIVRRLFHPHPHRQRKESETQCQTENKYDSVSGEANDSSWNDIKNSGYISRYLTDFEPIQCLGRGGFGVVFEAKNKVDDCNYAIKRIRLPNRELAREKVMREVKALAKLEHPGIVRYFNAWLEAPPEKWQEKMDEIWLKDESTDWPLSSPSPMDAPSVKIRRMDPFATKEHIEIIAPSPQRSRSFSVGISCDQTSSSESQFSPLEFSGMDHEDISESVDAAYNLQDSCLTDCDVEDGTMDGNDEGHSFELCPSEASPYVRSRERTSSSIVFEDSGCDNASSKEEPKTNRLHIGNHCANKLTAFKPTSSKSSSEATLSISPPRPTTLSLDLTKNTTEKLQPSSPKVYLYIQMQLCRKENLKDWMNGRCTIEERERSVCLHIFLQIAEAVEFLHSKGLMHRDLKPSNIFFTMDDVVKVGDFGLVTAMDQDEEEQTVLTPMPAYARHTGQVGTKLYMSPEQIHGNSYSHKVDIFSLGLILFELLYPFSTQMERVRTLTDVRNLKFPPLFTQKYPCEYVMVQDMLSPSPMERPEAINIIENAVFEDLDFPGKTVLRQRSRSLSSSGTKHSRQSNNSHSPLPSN
# [3] = test system: P388/ADR; assay: cells; assay type: functional; conditions: Mus musculus
# [4] = test system: SN12K1; assay: cells; assay type: functional; conditions: Homo sapiens
# [5] = test system: P388; assay: cells; assay type: functional; conditions: Mus musculus
# [6] = luciferase reporter signal suppression in cells – H4 neuroglioma cells, luminescence, dose response (AID 1990); assay type: functional, cell-based
# [7] = test system: BJ; assay: growth inhibition of engineered Ras-driven BJ cells – cell-based, alamar blue fluorescence, cherrypicked samples, dose response (AID 2631); assay type: functional; conditions: Homo sapiens;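 further: confirmatory dose-response assay in RAS-dependent BJ fibroblasts engineered with TERT, LT and ST, with cytotoxicity read by fluorescence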
# [8] = alpha-synuclein stem-loop luciferase translation blockers – H4 neuroglioma cells, luminescence, confirmation (AID 1988); assay type: functional, cell-based
# [9] = biological target: T1, Eukaryotic translation initiation factor 2-alpha kinase 3; assay: Dose response cell-based high-throughput screening assay to measure PERK inhibition. [Related pubchem assays: 1416 ]; assay type: functional
# [10] = biological target: T2, Interleukin-8 (Homo sapiens, UniProt P10145); assay: SAR analysis of Tumor necrosis factor alpha (TNF-alpha) induced IL-8 secretion in MCF-7/NOD1 cells - Set 2. [Related pubchem assays (depositor defined):AID1575, AID2250, AID2260]; assay type: functional, cell-based
# T2 sequence (P10145 whole entry): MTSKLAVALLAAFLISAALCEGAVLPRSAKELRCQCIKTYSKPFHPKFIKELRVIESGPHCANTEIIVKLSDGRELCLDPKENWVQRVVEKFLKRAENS
# [11] = biological target: Tumor necrosis factor (Homo sapiens, UniProt P01375); assay: analog potency on TNFa NF-kB signaling – cell-based, revised, SAR follow-up (AID 2337); assay type: functional
# Tumor necrosis factor, sequence (P01375 whole entry): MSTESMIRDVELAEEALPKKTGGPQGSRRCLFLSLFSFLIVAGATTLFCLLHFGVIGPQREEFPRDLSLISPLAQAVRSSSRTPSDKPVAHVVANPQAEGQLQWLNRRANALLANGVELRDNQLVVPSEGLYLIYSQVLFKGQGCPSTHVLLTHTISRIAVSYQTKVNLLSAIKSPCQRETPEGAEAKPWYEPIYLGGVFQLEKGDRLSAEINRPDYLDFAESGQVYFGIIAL
# [12] = test system: HEK293; assay: cells; conditions: Homo sapiens;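 further: cells exposed to compound for 14 hours overnight before viability readout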
# [13] = biological target: Nucleotide-binding oligomerization domain-containing protein 2 (Homo sapiens, UniProt Q9HC29); assay: PubChem AID 2334; assay type: functional
# Nucleotide-binding oligomerization domain-containing protein 2, sequence (Q9HC29 whole entry, the tested form may be a part): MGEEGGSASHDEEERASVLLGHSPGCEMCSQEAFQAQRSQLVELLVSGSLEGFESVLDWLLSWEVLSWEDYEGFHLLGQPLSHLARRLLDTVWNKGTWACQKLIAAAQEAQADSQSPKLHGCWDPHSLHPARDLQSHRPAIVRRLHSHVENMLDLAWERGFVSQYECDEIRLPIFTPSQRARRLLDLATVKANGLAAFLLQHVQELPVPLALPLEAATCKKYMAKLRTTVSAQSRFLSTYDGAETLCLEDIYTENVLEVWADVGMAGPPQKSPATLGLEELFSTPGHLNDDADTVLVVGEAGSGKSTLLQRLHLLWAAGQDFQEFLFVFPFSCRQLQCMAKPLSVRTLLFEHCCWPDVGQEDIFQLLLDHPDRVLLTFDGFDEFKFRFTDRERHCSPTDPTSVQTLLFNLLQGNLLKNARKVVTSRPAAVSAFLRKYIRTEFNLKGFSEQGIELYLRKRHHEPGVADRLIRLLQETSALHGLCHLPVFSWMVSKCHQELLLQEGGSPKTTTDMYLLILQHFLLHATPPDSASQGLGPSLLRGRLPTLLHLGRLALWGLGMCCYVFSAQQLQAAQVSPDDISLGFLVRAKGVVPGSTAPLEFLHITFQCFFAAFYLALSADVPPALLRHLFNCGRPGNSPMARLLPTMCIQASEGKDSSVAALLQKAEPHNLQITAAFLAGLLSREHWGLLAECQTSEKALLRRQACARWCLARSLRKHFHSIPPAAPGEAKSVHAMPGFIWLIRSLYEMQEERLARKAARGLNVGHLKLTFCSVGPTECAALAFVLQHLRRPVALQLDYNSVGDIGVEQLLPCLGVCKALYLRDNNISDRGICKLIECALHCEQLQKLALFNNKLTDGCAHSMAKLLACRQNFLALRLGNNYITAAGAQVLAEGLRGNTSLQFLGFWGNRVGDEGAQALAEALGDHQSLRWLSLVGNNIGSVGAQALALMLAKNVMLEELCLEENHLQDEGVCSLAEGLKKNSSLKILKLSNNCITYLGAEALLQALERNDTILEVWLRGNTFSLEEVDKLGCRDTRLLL
# [14] = biological target: T2, Interleukin-8; assay: SAR analysis of GM-Tri-DAP induced IL-8 secretion in MCF-7/NOD1 cells - Set 2. [Related pubchem assays (depositor defined):AID1575, AID1578, AID2333]; assay type: functional, cell-based
# [15] = biological target: T3, Nucleotide-binding oligomerization domain-containing protein 1 (Homo sapiens, UniProt Q9Y239); assay: blockers of NOD1 pathway activity – revised, SAR follow-up (AID 2333); assay type: functional
# T3 sequence (Q9Y239 whole entry): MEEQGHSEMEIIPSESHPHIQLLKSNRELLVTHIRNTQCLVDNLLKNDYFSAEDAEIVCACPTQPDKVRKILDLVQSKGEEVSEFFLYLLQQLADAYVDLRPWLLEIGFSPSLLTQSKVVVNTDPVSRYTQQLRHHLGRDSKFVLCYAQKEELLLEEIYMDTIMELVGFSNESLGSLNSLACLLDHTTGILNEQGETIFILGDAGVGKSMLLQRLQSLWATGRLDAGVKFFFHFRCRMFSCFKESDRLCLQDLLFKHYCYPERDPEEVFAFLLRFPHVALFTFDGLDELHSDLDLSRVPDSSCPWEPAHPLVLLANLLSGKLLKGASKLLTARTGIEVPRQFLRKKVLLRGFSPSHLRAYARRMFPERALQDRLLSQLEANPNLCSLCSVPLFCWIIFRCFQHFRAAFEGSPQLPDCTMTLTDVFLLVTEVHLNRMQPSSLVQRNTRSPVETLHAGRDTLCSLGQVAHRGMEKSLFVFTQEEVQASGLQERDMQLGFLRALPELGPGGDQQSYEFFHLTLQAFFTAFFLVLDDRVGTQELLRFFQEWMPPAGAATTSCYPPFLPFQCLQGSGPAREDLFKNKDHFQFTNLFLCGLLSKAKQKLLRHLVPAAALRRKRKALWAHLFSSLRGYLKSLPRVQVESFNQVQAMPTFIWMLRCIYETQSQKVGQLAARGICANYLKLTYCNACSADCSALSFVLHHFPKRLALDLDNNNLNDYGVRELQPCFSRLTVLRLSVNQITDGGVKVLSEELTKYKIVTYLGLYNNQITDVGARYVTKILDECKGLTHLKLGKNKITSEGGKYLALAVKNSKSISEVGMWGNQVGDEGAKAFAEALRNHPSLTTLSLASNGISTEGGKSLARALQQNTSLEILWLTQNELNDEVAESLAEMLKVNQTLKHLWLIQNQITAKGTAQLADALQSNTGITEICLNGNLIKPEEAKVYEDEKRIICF
# [16] = biological target: Polyadenylate-binding protein 1 (Homo sapiens, UniProt P11940); assay: PABP inhibition in translation initiation, SAR follow-up (AID 435018); assay type: functional
# [17] = biological target: Eukaryotic translation initiation factor 4H (Homo sapiens, UniProt Q15056); assay: inhibitors of translation initiation factor eIF4H – SAR follow-up (AID 435011); assay type: functional
# [18] = biological target: Nuclear receptor subfamily 5 group A member 2 (Homo sapiens, UniProt O00482); assay type: functional, cell-based;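 further: HEK293T cells transfected with LRH-1 and a StAR promoter luciferase reporter; potency for inhibitors that lower LRH-1 driven reporter light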
# Nuclear receptor subfamily 5 group A member 2, sequence (O00482 whole entry): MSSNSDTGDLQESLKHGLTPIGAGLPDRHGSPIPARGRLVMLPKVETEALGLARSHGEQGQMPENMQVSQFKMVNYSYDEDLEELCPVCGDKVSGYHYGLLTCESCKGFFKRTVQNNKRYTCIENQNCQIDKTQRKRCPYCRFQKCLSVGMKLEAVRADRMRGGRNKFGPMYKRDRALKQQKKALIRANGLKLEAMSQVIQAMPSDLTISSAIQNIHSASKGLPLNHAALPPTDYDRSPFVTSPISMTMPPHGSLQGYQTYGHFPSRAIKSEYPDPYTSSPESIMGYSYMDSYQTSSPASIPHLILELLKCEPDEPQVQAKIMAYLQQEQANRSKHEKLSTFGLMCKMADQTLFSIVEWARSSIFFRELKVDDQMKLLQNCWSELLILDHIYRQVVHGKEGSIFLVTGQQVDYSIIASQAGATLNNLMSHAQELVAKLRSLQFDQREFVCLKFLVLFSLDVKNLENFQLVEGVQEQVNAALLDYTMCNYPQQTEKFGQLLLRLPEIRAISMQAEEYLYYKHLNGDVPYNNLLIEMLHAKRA
# [19] = biological target: Steroidogenic factor 1 (Homo sapiens, UniProt Q13285); assay: Counterscreen for inverse agonists of the liver receptor homolog-1 (LRH-1; NR5A2): Luminescence-based cell-based high throughput dose response assay to identify inverse agonists of the Steroidogenic Factor 1 Nuclear Receptor (SF1; NR5A1).; assay type: functional
# Steroidogenic factor 1, sequence (Q13285 whole entry): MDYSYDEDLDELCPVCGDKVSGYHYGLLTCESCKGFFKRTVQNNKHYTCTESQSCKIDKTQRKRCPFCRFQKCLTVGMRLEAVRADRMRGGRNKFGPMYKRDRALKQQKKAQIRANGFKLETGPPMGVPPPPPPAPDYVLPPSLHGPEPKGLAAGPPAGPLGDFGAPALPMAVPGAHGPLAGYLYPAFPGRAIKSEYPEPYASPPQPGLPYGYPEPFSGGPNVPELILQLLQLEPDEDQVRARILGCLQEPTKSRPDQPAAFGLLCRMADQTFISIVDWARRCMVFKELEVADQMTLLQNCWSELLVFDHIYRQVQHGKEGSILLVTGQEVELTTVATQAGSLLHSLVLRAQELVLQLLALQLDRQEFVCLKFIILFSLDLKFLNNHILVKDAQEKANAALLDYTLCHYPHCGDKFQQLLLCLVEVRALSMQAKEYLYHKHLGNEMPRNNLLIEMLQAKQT
# [20] = nonselective StAR promoter luciferase inhibitors – cell-based, luminescence, luciferase reporter, counter-screen for LRH-1 inverse agonist project, dose response (AID 651969); assay type: functional
# [21] = biological target: T4, Rac GTPase-activating protein 1 (Homo sapiens, UniProt Q9H0H5); assay: blockers of MgcRacGAP-driven Rac1 GTP hydrolysis – biochemical, ADP Hunter fluorescence, primary and confirmatory, confirmation (AID 624330); assay type: functional
# T4 sequence (Q9H0H5 whole entry): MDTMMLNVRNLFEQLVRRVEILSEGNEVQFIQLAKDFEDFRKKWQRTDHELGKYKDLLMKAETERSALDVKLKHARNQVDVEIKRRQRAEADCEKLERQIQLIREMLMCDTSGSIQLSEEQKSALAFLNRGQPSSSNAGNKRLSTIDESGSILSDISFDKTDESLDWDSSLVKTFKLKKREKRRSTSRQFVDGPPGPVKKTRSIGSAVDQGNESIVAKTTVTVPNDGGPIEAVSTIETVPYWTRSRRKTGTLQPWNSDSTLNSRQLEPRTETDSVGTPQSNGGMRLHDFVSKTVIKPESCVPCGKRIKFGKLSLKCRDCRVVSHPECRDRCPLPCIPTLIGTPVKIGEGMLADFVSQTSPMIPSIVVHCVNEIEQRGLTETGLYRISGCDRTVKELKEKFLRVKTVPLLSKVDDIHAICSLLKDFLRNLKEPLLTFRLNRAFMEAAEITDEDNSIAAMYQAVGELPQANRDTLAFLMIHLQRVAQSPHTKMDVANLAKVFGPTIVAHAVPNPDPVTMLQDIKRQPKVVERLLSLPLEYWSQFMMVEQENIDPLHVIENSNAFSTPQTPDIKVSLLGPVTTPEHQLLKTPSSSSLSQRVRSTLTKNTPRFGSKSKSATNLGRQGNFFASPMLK
# [22] = biological target: Cyclin-dependent kinase 5/CDK5 activator 1 (Homo sapiens, UniProt Q00535); assay: blockade of human CDK5 activity – biochemical, cherry-picked samples, set 2, dose response (AID 504545)
# Cyclin-dependent kinase 5/CDK5 activator 1, sequence (Q00535 whole entry): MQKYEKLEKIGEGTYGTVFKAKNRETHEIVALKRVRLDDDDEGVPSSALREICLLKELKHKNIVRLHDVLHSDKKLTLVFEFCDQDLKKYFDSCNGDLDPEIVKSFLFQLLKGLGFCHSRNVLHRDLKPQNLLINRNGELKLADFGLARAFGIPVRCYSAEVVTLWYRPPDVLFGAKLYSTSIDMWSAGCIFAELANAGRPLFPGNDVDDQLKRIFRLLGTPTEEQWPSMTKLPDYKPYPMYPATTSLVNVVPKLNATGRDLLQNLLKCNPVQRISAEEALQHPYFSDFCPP
# Cyclin-dependent kinase 5/CDK5 activator 1, sequence (Q15078 whole entry, further chain): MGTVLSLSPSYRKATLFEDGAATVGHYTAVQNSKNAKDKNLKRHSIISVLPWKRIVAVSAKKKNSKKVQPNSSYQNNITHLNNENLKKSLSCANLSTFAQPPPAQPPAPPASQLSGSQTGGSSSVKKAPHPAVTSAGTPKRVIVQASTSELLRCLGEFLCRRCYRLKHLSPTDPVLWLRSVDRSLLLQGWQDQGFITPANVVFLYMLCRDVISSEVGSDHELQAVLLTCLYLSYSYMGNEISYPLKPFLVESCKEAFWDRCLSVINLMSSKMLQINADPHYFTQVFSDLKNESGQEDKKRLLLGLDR
# [23] = biological target: G-protein coupled receptor 55 (Homo sapiens, UniProt Q9Y2T6); assay: selective activators of receptor GPR55 – imaging, U2OS cells, beta-arrestin-GFP redistribution, primary screen (AID 1961); assay type: functional
# G-protein coupled receptor 55, sequence (Q9Y2T6 whole entry): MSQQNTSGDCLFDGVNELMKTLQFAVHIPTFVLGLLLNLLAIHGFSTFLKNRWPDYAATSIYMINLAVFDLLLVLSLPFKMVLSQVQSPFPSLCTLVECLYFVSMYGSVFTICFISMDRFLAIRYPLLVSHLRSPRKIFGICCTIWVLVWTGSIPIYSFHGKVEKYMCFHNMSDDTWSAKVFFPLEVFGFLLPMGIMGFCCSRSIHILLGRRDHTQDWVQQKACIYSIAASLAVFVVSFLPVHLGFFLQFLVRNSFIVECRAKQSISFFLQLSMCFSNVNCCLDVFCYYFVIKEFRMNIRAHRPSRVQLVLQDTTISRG
structure (smiles),measurement,setting,value
O=C(Nc1cccc(NC(=O)C2CCCC2)c1)c1ccccc1Br,AC50,[1],8.81 µM (active)
CC[C@@]1(O)C(=O)OCc2c1cc1n(c2=O)Cc2cc3ccccc3nc2-1 [CAMPTOTHECIN],EC50,[2],> 55.7 µM (not active)
same,GI50,[3],0.0254 µM (active)
same,GI50,[4],0.0245 µM (active)
same,GI50,[5],0.0267 µM (active)
same,EC50,[6],0.134 µM (active)
same,EC50,[7],0.00767 µM (active)
same,EC50,[8],< 0.1 µM (active)
same,EC50,[9],> 55.7 µM (not active)
COc1ccc(C(=O)Cn2c(N)nc3ccccc32)cc1,IC50,[10],> 25 µM (inactive)
same,IC50,[11],> 20 µM (inactive)
same,IC50,[12],> 20 µM (inactive)
same,IC50,[13],> 20 µM (inactive)
same,IC50,[14],> 25 µM (inactive)
same,IC50,[15],> 20 µM (inactive)
CC(=O)Nc1ccc(NC(=O)CSc2ccc(-c3ccco3)nn2)cc1,IC50,[16],> 100 µM (inactive)
same,IC50,[17],31.1 µM (active)
same,IC50,[18],35.9 µM (inactive)
same,IC50,[19],35.9 µM (inactive)
same,IC50,[20],35.9 µM (inactive)
ON=C1c2ccccc2-c2ccc(O)cc21,IC50,[21],23.6 µM (active)
same,AC50,[22],17.6 µM (active)
COc1ccc2cc(C)c3nnc(SCC(=O)Nc4nc(-c5ccccc5)cs4)n3c2c1,EC50,[23],1.03 µM (active)

# — ChEMBL document CHEMBL1201862, “PubChem BioAssay data set” (2004)
